Assay results taken from US20090312349A1, “ANTI-INFLAMMATORY MEDICAMENTS” (priority 2004, published 2009).
Like-named read-outs stand apart in the source and are kept apart here.

What was measured:
Assay type in all cases: biochemical
[1] = biological target: T1, phospho p-38 alpha kinase (Homo sapiens, UniProt Q16539); experiment: P-38 alpha kinase assay (spectrophotometric, pyruvate kinase/lactate dehydrogenase coupled)
T1 construct: purchased Panvera
Protocol: In this assay, the oxidation of NADH was continuously measured spectrophometrically. […] The reaction was initiated by adding ATP. The absorption at 340 nm was monitored continuously for up to 4 hours at 30° C. on Polarstar Optima plate reader (BMG). The kinase activity (reaction rate) was calculated from the slope at the time frame from 1.5 h to 2 h.
For inhibition determinations, test compounds were incubated with the reaction mixture for ˜5 min before adding ATP to start the reaction. […] IC50 values were calculated from a series of % inhibition values determined at a range of concentrations of each inhibitor using Prism to process the data and fit inhibition curves. Generally, the rates obtained at the time frame of 1.5 h to 2 h were used for these calculations.

[2] = biological target: phosphorylated p-38-alpha kinase (Homo sapiens, UniProt Q16539); experiment: P-38 alpha kinase assay P1; details: Method P1; 2 h pre-incubation before ATP
[3] = biological target: B-Raf(V599E) kinase (Homo sapiens, UniProt P15056, V600E); experiment: B-Raf(V599E) kinase assay B1; details: for IC50: Method B1, construct 1
Protocol: The test compounds were incubated with the reaction mixture at 30° C. for 2 h. […] The reaction rate was calculated using the 1.5 h to 2.5 h time frame. […] IC50 values were calculated from a series of percent inhibition values determined at a range of inhibitor concentrations using software routines as implemented in the GraphPad Prism software package.

[4] = Table 5, assay not named, read-out: uM

T1 sequence (Q16539 whole entry): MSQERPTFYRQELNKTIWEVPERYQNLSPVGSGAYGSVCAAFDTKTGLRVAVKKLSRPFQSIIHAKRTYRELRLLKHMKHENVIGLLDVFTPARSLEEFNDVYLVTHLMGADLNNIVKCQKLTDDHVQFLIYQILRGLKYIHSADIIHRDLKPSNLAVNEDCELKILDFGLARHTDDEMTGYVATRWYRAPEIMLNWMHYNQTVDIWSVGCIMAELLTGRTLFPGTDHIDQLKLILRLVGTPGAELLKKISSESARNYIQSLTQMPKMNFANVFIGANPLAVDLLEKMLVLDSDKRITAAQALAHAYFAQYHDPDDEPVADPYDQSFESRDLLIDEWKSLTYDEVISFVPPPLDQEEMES
Chain of B-Raf(V599E) kinase (P15056 with tags, fused parts or gaps V600E): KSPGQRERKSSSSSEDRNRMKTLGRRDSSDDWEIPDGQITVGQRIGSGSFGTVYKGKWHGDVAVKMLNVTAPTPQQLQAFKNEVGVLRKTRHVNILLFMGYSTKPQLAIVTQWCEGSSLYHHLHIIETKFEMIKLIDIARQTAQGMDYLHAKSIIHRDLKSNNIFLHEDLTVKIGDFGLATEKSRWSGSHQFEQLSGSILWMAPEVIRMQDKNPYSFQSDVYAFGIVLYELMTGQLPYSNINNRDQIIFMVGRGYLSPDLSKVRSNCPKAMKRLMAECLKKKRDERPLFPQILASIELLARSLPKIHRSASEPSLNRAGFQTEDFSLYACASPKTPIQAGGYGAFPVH
Chain of phosphorylated p-38-alpha kinase (Q16539 1-360 isoform Q16539-2): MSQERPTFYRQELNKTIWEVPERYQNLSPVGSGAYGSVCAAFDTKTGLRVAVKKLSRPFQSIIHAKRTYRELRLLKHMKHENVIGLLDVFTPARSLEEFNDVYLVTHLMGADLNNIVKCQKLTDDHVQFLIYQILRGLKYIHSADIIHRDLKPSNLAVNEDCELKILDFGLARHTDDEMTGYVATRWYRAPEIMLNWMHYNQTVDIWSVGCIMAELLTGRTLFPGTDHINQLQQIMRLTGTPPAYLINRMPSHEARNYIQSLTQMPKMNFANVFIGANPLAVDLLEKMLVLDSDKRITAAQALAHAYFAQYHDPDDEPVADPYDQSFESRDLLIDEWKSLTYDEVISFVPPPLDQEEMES

O=C(O)Cc1ccc(-n2nc(-c3ccsc3)cc2NC(=O)Nc2cccc(Cl)c2Cl)cc1 [Example 444, 2-(4-(5-(3-(2,3-dichlorophenyl)ureido)-3-(thiophen-3-yl)-1H-pyrazol-1-yl)phenyl)acetic acid]
IC50 [1, 4]: 5 µM | IC50 [2]: 0.006 µM | inhibition at 1 µM ([3]; read-out: Results, % @ concentration μM): 42%

NC(=O)Cc1ccc(-n2nc(-c3cccs3)cc2NC(=O)Nc2cccc(Cl)c2Cl)cc1 [Example 468, 1-(1-(4-(2-amino-2-oxoethyl)phenyl)-3-(thiophen-2-yl)-1H-pyrazol-5-yl)-3-(2,3-dichlorophenyl)urea]
IC50 [1, 4]: 0.0086 µM | IC50 [2]: 0.009 µM | IC50 [3]: 1.2 µM

O=C(Cc1ccc(-n2nc(-c3cccs3)cc2NC(=O)Nc2cccc(Cl)c2Cl)cc1)NCC(O)CO (stereo not drawn) [Example 472, 1-(2,3-dichlorophenyl)-3-(1-(4-(2-(2,3-dihydroxypropylamino)-2-oxoethyl)phenyl)-3-(thiophen-2-yl)-1H-pyrazol-5-yl)urea]
IC50 [1, 4]: 0.05 µM | IC50 [2]: 0.01 µM

O=C(O)Cc1cccc(-n2nc(-c3cccs3)cc2NC(=O)Nc2cccc(Cl)c2Cl)c1 [Example 435, 2-(3-(5-(3-(2,3-dichlorophenyl)ureido)-3-(thiophen-2-yl)-1H-pyrazol-1-yl)phenyl)acetic acid]
IC50 [3]: 0.16 µM

NC(=O)Cc1cccc(-n2nc(-c3ccccc3)cc2NC(=O)Nc2cccc(Cl)c2Cl)c1 [Example 447, 1-(1-(3-(2-amino-2-oxoethyl)phenyl)-3-phenyl-1H-pyrazol-5-yl)-3-(2,3-dichlorophenyl)urea]
IC50 [2]: 0.011 µM

NC(=O)Cc1cccc(-n2nc(-c3cccs3)cc2NC(=O)Nc2cccc(Cl)c2Cl)c1 [Example 451, 1-(1-(3-(2-amino-2-oxoethyl)phenyl)-3-(thiophen-2-yl)-1H-pyrazol-5-yl)-3-(2,3-dichlorophenyl)urea]
% @ concentration, uM ([1]; Table 5, @ 1 uM): 3% @1 | IC50 [2]: 0.008 µM | IC50 [3]: 0.84 µM

O=C(O)Cc1ccc(-n2nc(-c3cccc(F)c3)cc2NC(=O)Nc2cccc(Cl)c2Cl)cc1 [Example 439, 2-(4-(5-(3-(2,3-dichlorophenyl)ureido)-3-(3-fluorophenyl)-1H-pyrazol-1-yl)phenyl)acetic acid]
IC50 [2]: 0.013 µM

O=C(O)Cc1cccc(-n2nc(-c3cccc(F)c3)cc2NC(=O)Nc2cccc(Cl)c2Cl)c1 [Example 432, 2-(3-(5-(3-(2,3-dichlorophenyl)ureido)-3-(3-fluorophenyl)-1H-pyrazol-1-yl)phenyl)acetic acid]
% @ concentration, uM ([1]; Table 5, @ 1 uM): 9% | % @ concentration, uM ([1]; Table 5, @ 10 uM): 24% | IC50 [2]: 0.011 µM

O=C(Cc1ccc(-n2nc(-c3cccs3)cc2NC(=O)Nc2cccc(Cl)c2Cl)cc1)NC(CO)CO [Example 474, 1-(2,3-dichlorophenyl)-3-(1-(4-(2-(1,3-dihydroxypropan-2-ylamino)-2-oxoethyl)phenyl)-3-(thiophen-2-yl)-1H-pyrazol-5-yl)urea]
IC50 [1, 4]: 0.38 µM | IC50 [2]: 0.013 µM

CC(C)(C)c1cc(NC(=O)Nc2ccc(Cl)cc2)n(-c2cccc(CN3C(=O)NC(=O)C3=O)c2)n1 [Example 378, 1-{3-t-butyl-2-{3-[(2,4,5-trioxoimidazolidin-1-yl)methyl]phenyl}-1H-pyrazol-3-yl}-3-(4-chlorophenyl)urea]
IC50 [1, 4]: 0.4 µM

CC(C)(C)c1cc(NC(=O)Nc2ccc(Cl)cc2)n(-c2cccc(CNC(=O)N3CCCCC3)c2)n1 [Example 385, 1-(3-t-butyl-1-{3-[(piperidine-1-carboxamido)methyl]phenyl}-1H-pyrazol-5-yl)-3-(4-chlorophenyl)urea]
IC50 [1, 4]: 0.03 µM

CC(Cc1ccc(-n2nc(C(C)(C)C)cc2NC(=O)Nc2cccc3ccccc23)cc1)C(=O)O (stereo not drawn) [Example 325, 3-(4-{3-t-butyl-5-[3-(naphthalen-1-yl)ureido]-1H-pyrazol-1-yl}phenyl)-2-methylpropanoic acid]
% @ concentration, uM ([1]; Table 5, @ 10 uM): 54% @ 10

COc1ccc(-n2nc(C(C)(C)C)cc2NC(=O)Nc2cccc(F)c2F)cc1 [Example 312, 1-[3-t-butyl-1-(4-methoxyphenyl)-1H-pyrazol-5-yl]-3-(2,3-difluorophenyl)urea]
IC50 [1, 4]: 0.349 µM

CCOC(=O)Cc1cccc(-n2nc(C(C)(C)C)cc2NC(=O)Nc2ccccc2)c1 [Example 397, ethyl 2-{3-[3-t-butyl-5-(3-phenylureido)-1H-pyrazol-1-yl]phenyl}acetate]
IC50 [1, 4]: 0.04 µM

CCOC(=O)c1ccc(-n2nc(C)cc2NC(=O)Nc2ccc(Cl)cc2)cc1 [Example 344, ethyl 4-{5-[3-(4-chlorophenyl)ureido]-3-methyl-1H-pyrazol-1-yl}benzoate]
IC50 [1, 4]: 0.18 µM

CCOC(=O)Cc1ccc(-n2nc(C(C)(C)C)cc2NC(=O)Nc2cccc3ccccc23)cc1 [Example 316, ethyl 2-(4-{3-t-butyl-5-[3-(naphthalen-1-yl)ureido]-1H-pyrazol-1-yl}phenyl)acetate]
IC50 [1, 4]: 0.42 µM

CCOC(=O)c1cccc(-n2nc(C(C)(C)C)cc2NC(=O)Nc2cccc3ccccc23)c1 [Example 366, ethyl 3-{3-t-butyl-5-[3-(naphthalen-1-yl)ureido]-1H-pyrazol-1-yl}benzoate]
% @ concentration, uM ([1]; Table 5, @ 10 uM): 53% @ 10

O=C(Nc1cccc(Cl)c1Cl)Nc1cc(-c2ccccc2F)nn1-c1ccc(CC(=O)N2CC[C@H](O)C2)cc1 [Example 479, 1-(2,3-dichlorophenyl)-3-(3-(2-fluorophenyl)-1-(4-(2-((S)-3-hydroxypyrrolidin-1-yl)-2-oxoethyl)phenyl)-1H-pyrazol-5-yl)urea]
IC50 [2]: 0.037 µM

CC(C)(C)c1cc(NC(=O)Nc2cccc(Cl)c2Cl)n(-c2ccc(C(C)(C)O)cc2)n1 [Example 364, 1-{3-t-butyl-1-[4-(2-hydroxypropan-2-yl)phenyl]-1H-pyrazol-5-yl}-3-(2,3-dichlorophenyl)urea]
IC50 [1, 4]: 0.01 µM

CCOC(=O)C(C)Cc1ccc(-n2nc(C(C)(C)C)cc2NC(=O)Nc2cccc3ccccc23)cc1 (stereo not drawn) [Example 324, ethyl 3-(4-{3-t-butyl-5-[3-(naphthalen-1-yl)ureido]-1H-pyrazol-1-yl}phenyl)-2-methylpropanoate]
% @ concentration, uM ([1]; Table 5, @ 10 uM): 40% @ 10

COC(=O)COc1ccc(-n2nc(C(C)(C)C)cc2NC(=O)Nc2cccc3ccccc23)cc1 [Example 416, 1-(3-t-butyl-1-(4-(carbomethoxymethyl)oxyphenyl)-1H-pyrazol-5-yl)-3-(naphthalen-1-yl)urea]
% @ concentration, uM ([1]; Table 5, @ 0.1 uM): 67% | % @ concentration, uM ([1]; Table 5, @ 1 uM): 83%

CC(C)(C)c1cc(NC(=O)Nc2cccc(Cl)c2Cl)n(-c2ccc(C(=O)O)cc2)n1 [Example 365, 4{-3-t-butyl-5-[3-(2,3-dichlorophenyl)ureido]-1H-pyrazol-1-yl}benzoic acid]
IC50 [1, 4]: 0.007 µM

O=C(Nc1ccc(Cl)cc1)Nc1cc(C(F)(F)F)nn1-c1ccc(CO)cc1 [Example 339, 1-(4-chlorophenyl)-3-{3-(trifluoromethyl)-1-[4-(hydroxyl-methyl)phenyl]-1H-pyrazol-5-yl}urea]
% @ concentration, uM ([1]; Table 5, @ 2 uM): 9% @ 2

CCOC(=O)c1ccc(-n2nc(C)cc2NC(=O)Nc2cccc(Cl)c2Cl)cc1 [Example 346, ethyl 4-{5-[3-(2,3-dichlorophenyl)ureido]-3-methyl-1H-pyrazol-1-yl}benzoate]
% @ concentration, uM ([1]; Table 5, @ 0.1 uM): 19% | % @ concentration, uM ([1]; Table 5, @ 1 uM): 63%

CC(C)(C)c1cc(NC(=O)Nc2cccc3ccccc23)n(-c2cccc(CO)c2)n1 [Example D, 1-{3-t-butyl-1-[3-(hydroxymethyl)phenyl]-1H-pyrazol-5-yl}-3-(naphthalen-1-yl)urea]
IC50 ([1]; Table 2, rates at […] to 2 h, read-out: IC50): 0.179 µM

Cc1cc(NC(=O)Nc2ccc(Cl)cc2)n(-c2ccc(CO)cc2)n1 [Example 345, 1-(4-chlorophenyl)-3-{1-[4-(hydroxymethyl)phenyl]-3-methyl-1H-pyrazol-5-yl}urea]
IC50 [1, 4]: 0.27 µM

CC(C)c1cc(NC(=O)Nc2cccc3ccccc23)n(-c2ccc(C(O)C(F)(F)F)cc2)n1 (stereo not drawn) [Example 411, 1-(1-(4-(2,2,2-trifluoro-1-hydroxyethyl)phenyl)-3-isopropyl-1H-pyrazol-5-yl)-3-(naphthalen-1-yl)urea]
IC50 [1, 4]: 0.008 µM

CCOC(=O)Cc1ccc(-n2nc(C(C)(C)C)cc2NC(=O)Nc2cccc(Cl)c2Cl)cc1 [Example 318]
IC50 [1, 4]: 0.67 µM

CCOC(=O)Cc1cccc(-n2nc(C(C)(C)C)cc2NC(=O)Nc2cccc3ccccc23)c1 [Example 319, ethyl 2-(3-{3-t-butyl-5-[3-(naphthalen-1-yl)ureido]-1H-pyrazol-1-yl}phenyl)acetate]
IC50 [1, 4]: 0.32 µM

CC(C)(C)c1cc(NC(=O)Nc2cccc3ccccc23)n(-c2cccc(CNC(=O)N3CCCC3)c2)n1 [Example 383, 1-(3-t-butyl-1-{3-[(pyrrolidine-1-carboxamido)methyl]phenyl}-1H-pyrazol-5-yl)-3-(naphthalen-1-yl)urea]
IC50 [1, 4]: 0.1 µM

CCOC(=O)c1ccc(-n2nc(C(C)(C)C)cc2NC(=O)Nc2cccc(F)c2F)cc1 [Example 314, ethyl 4-{3-t-butyl-5-[3-(2,3-difluorophenyl)ureido]-1H-pyrazol-1-yl}benzoate]
IC50 [1, 4]: 0.25 µM

CC(C)(O)c1cccc(-n2nc(C(F)(F)F)cc2NC(=O)Nc2cccc3ccccc23)c1 [Example 337]
% @ concentration, uM ([1]; Table 5, @ 10 uM): 8% @ 10

CC(C)(C)c1cc(NC(=O)Nc2ccc(Cl)cc2)n(-c2cccc(CO)c2)n1 [Example 376]
IC50 [1, 4]: 0.48 µM
